{"source": "patent US20090098050A1", "about": "“CALCIUM BINDING PEPTIDES” (THE REGENTS OF THE UNVERSITY OF CALIFORNIA, priority 2005, published 2009)", "key": {"[1]": {"test": "Remineralization of demineralized dentin surfaces with Quell Desensitizer (SEM)", "set-up": "species or system human", "conditions": "12.5 μM peptide one hour, then Quell Desensitizer 15 minutes", "procedure": "FIG. 4: Remineralization of tooth surfaces with DSS peptides. Extracted human teeth were sagitally sectioned and demineralized with 19% EDTA gel for 1 hour, followed by immersion in deionized water and ultrasonication to remove excess debris. Samples were treated as indicated, then imaged by Scanning Electron Microscopy. Scale bars=50 μm. A. Demineralized control samples. B. Treated with 8DSS for 1 hour, rinsed, and remineralized using Quell Desensitizer. C. Treated with buffer only, remineralized using Quell Desensitizer. D. No treatment, remineralized using Quell Desensitizer. Extracted human teeth were sagitally sectioned (Accutom-50, CA-231 diamond blade) and demineralized with 19% EthyleneDiaminoTetraAcetic acid (EDTA) gel for one hour, followed by immersion in deionized water and ultrasonication to remove excess debris. Samples were treated with 12.5 μM 8DSS peptide in 50 mM HEPES buffer (pH 7.0), buffer only (no peptide), or left untreated. After one hour, samples were remineralized for 15 minutes with Quell Desensitizer (Pentron technologies, LLC), a remineralization solution consisting of aqueous solutions of calcium chloride and potassium phosphate. Samples were rinsed thoroughly prior to imaging by scanning electron microscopy (SEM)."}, "[2]": {"test": "Preferential binding to carious lesions in teeth (CLSM)", "set-up": "species or system human", "conditions": "labeled peptide, settings optimized per sample", "procedure": "FIG. 9: Fluorescence micrographs showing specific binding of DSS peptides and variants to carious lesions in teeth. Adult human teeth were exposed to 12.5 uM 5(6)-carboxyfluorescein-labeled peptide without demineralization, washed extensively, and imaged by CLSM. Microscope and camera settings were optimized separately for each sample. […] White traces on the right side of each panel identify the position of the tooth surface, while arrows indicate the position of the stained lesion.\nSections of human teeth containing obvious carious lesions, which consist of demineralized enamel, were polished and exposed to 5(6)-carboxyfluorescein-labeled DSS peptides and variants using the protocol described in Example 2. The sections were washed extensively and imaged by CLSM using blue laser illumination (λ=488 nm) and a FITC emission filter, with microscope and camera settings adjusted for each sample to optimize the signal detected from each peptide. The images were examined to identify the relative levels of peptide binding in healthy versus carious tissue. […] Given their ability to remineralize at sites of enamel degradation (Example 6), they can also be used to initiate remineralization at sites of enamel degradation such as caries or injury sites without causing inappropriate nucleation on healthy tissue surfaces."}, "[3]": {"test": "Binding to inorganic phosphate precipitates (relative fluorescence)", "conditions": "12.5 μM labeled peptide, ten minutes, about 0.5% (w/v) salt", "procedure": "FIG. 10: Relative levels of 8DSS peptide binding to various inorganic phosphate precipitates. 100 mM sodium phosphate (pH 7.5) was combined with 100 mM solutions of MgCl2, CaCl2, MnCl2, CoCl2, NiSO4, CuSO4, and SrCl2, respectively. Suspensions were made of each phosphate salt at a concentration of approximately 0.5% (w/v) in the presence of 12.5 μM 5(6)-carboxyfluorescein-labeled 8DSS peptide. After a ten minute incubation at room temperature, samples were washed and imaged by fluorescence microscopy. The intensity of the fluorescent staining of the inorganic phosphate particles in each sample was assessed by measuring the pixel intensity values using the GIMP (www.gimp.org) as described in Example 11. Normalized fluorescence values are plotted here. […] On the Y-axis, the relative fluorescence intensity values are plotted.\nPhosphate salts of magnesium, calcium, manganese, cobalt, nickel, copper, and strontium were prepared by combining 100 mM sodium phosphate (pH 7.5) with 100 mM solutions of the chloride or sulfate salts of the aforementioned metal ions (MgCl2, CaCl2, MnCl2, CoCl2, NiSO4, CuSO4, and SrCl2, respectively). […] Each sample was incubated for ten minutes at room temperature, then washed twice with a solution of 50 mM HEPES pH 7.0 and 10 mM NaCl, resuspended in the same buffer, and imaged by fluorescence microscopy. […]"}, "[4]": {"test": "Tissue specificity of binding in demineralized and nondemineralized teeth (CLSM)", "set-up": "species or system human", "conditions": "12.5 μM labeled peptide", "procedure": "FIG. 6: Tissue specificity of 8DSS peptide binding and its dependence on mineralization state. Demineralized and nondemineralized human teeth samples were incubated with 12.5 μM 5(6)-carboxyfluorescein-labeled 8DSS peptide as described in Example 9, and sections were rinsed and imaged by CLSM. […] The dentin-enamel junction, labeled DEJ, is clearly demarcated in both cases.\nSagitally sectioned human teeth were either demineralized by incubation with 0.5 M EDTA for 15 minutes or left nondemineralized. Samples were then incubated for ten minutes in a solution of 12.5 μM 5(6)-carboxyfluorescein-labeled 8DSS, 10 mM NaCl, and 50 mM HEPES, pH 7.0. Control samples were incubated without peptide. Sections were then rinsed and imaged by CLSM using identical laser and camera settings."}}, "data": [{"substance": "8DSS: peptide containing eight Asp-Ser-Ser (DSS) repeats, SEQ ID NO:15 (DSSDSSDSSDSSDSSDSSDSSDSS; calcium binding peptide containing eight DSS repeats, 8DSS)", "values": [{"measurement": "Mineral precipitate accumulation on demineralized dentin", "setting": "[1]", "value": "accumulated a continuous layer of calcium phosphate precipitate, fully occluding the dentinal tubules"}, {"measurement": "Specificity of binding to carious lesions versus surrounding healthy enamel", "setting": "[2]", "value": "highly specific binding to carious lesions"}, {"measurement": "Strength of staining of carious lesions", "setting": "[2]", "value": "exceptionally strong staining of carious lesions"}, {"measurement": "Fluorescent staining of CaHPO4 and SrHPO4 aggregates", "setting": "[3]", "value": "highest levels of staining"}, {"measurement": "Fluorescent staining of NiHPO4 aggregates", "setting": "[3]", "value": "small level of staining"}, {"measurement": "Binding pattern in demineralized tooth tissue", "setting": "[4]; demineralized sample", "value": "Primary binding is to the demineralized enamel (E) with little binding to the dentin (D)"}, {"measurement": "Binding pattern in nondemineralized tooth tissue", "setting": "[4]; nondemineralized sample", "value": "primary binding is to the dentin (D) with little or no binding to the enamel (E)"}]}]}
